The values below come from article PMC7822816, “Halo-fluorescein for photodynamic bacteria inactivation in extremely acidic conditions” (Nature Communications, 2021).

Series [1] deals with C. albicans infection of oral mucosa. The note with it: photosensitizer + light (510 nm TIF, 660 nm Ce 6 and Zn-tpp).
Excerpt: The extremely acidic environment was constructed through changing the pH of the mucosa and diluting PSs in pH 3.0 PBS buffer. […] During the investigations, the infected ICR mice were divided into six groups (six mice per group): blank, light, TIF, TIF + light, Ce 6 + light, and Zn-tpp + light. For comparison and better visualization of the infection, a normal group (no infection) was also included.
To construct the oral mucosal infection model, cotton balls immersed in solutions containing 10^8 CFU/mL of C. albicans were placed in the mouth of mice for 75 min. At day 1 and day 3, 50 μL pH 3.0 PBS and PSs (20 μM, diluted by pH 3.0 PBS) were added to oral mucosa, and treated with different lasers (510 nm for TIF, 660 nm for Ce 6 and Zn-tpp, 50 mW/cm^2) for 10 min.
To investigate the therapy effect, photographs, colonies, weights, and pathology index of mice were taken every other day. After day 3, one mouse in each group was sacrificed, and the tissues of oral mucosa were harvested for hematoxylin and eosin (H&E) staining. The pathology index was evaluated based on the standard given in Supplementary Table 10.
The subject of the next series is C. albicans. The experiment in a line: Fresh food preservation (infected tomato model). To be noted: 10 μM in pH 3.0 PBS, LED 35 mW/cm^2 10 min (620 nm Zn-tpp, 660 nm Ce 6). The arrangement: species or system Candida albicans. From the text: Besides fruit juices, the potential of TIF for photo-assisted fresh food preservation was also investigated with tomato as the model (pH 3.0). […] Therefore, the food additive TIF is also promising for fresh food preservation.
Tomatoes were selected as the model for photo-assisted fresh food preservation. All the tomatoes were divided into six groups, and made a wound of ~7 cm^2 by hot water. […] Afterward, the tomatoes were stored at room temperature and then subjected to repeated irradiation at day 2. The total viable counts of bacteria on the infected tomatoes were measured in day 3.

A further series deals with MRSA. To be noted: dose 100 mg/L, 360 J/cm2; cited from earlier work.
On the set-up of series [2]: method as in PMID 10546544. To be noted: Rose Bengal as the standard; cited from earlier work.
Series [3] in a line: Relative singlet oxygen quantum yield (1O2 phosphorescence, Rose Bengal standard). Format: physicochemical. Also noted: key: relative to Rose Bengal standard (ΦΔ = 0.75). To be noted: for singlet oxygen quantum yield (ΦΔ): pH = 10 media, relative, RB as the standard. As to the method:
To permit the open-form structure of all fluorescein derivatives, all the measurements were carried out in pH = 10 media.
The singlet oxygen quantum yields (ΦΔ) of all fluorescein-based PSs were evaluated with Rose Bengal as the standard (ΦΔ = 0.75):1 ΦΔ=AsAbsorption/As(Emission)×ARB(Emission)/ARB(Absorption)×0.75 Here, the area of absorption (RB and PSs) was collected with an integrating sphere (λex = 510 nm), while the area of emission was obtained from the characterized 1270 nm ^1O2 phosphorescence emission. For collection of such emission, CH3CN and D2O mixed solvent (v (D2O): v (CH3CN) = 1:15, pH = 9.0, adjusted with 0.001 M NaOH) was used, since H2O can severely quench the singlet oxygen luminescence. For all the measurements, the concentrations of the PSs were set at 10 μM.
S6.3 Relative singlet oxygen quantum yield
The singlet O2 quantum yield of photosensitizers were measured by Fluolog-3 spectrofluorometer with an integration sphere (IS80, Labsphere) and NIR detector (Hamamatsu H-10330) in this work.
For better collection of the characterized singlet oxygen phosphorescence emission (1275 nm), CH3CN and D2O mixed solvent was used (H2O can severely quench the singlet oxygen luminescence). The 10 mM stock solutions in CH3CN and D2O mixed solvent (VCH3CN:VD2O = 15:1) were first prepared. The stock solutions were diluted to 10 μM, and the final volume was 2 mL. In addition, the CH3CN and D2O mixed solvent as blank was also prepared.
1. Turn on the instrument and the start software, the light source is xenon lamp.
2. From the experiment menu, selected spectra, emission. The 1O2 emission phosphorescence spectra are first measured.
3. The parameters setting are listed: a. Excitation wavelength: 510 nm

A short description of series [4]: Photophysical characterization (absorption, fluorescence, phosphorescence, lifetime). Format: physicochemical. The note with it: for ΦFL: 5 μM in 0.5% (v/v) DMSO, diluted with 0.1 M NaOH; for λAbs / λPh / λem: 2% DMSO; for τfl: fluorescence lifetime, 5 μM in 0.5% DMSO, 0.1 M NaOH. As to the method: Section S6. Photophysical Characterizations
S6.1 Absorption, fluorescence, and phosphorescence spectra
Fluorescein and its derivatives were dissolved in DMSO to obtain 1 mM stock solutions.
The stock solutions were diluted with deionized water to 10 μM.
Supplementary Figure 20. The absorption (black), fluorescence (blue), and phosphorescence (red, slit 25 nm) spectra of FL.
Supplementary Figure 21. The absorption (black), fluorescence (blue), and phosphorescence (red, slit 25 nm) spectra of DCF.
S6.2 Fluorescence lifetime
Fluorescence decay samples was recorded with Fluorolog-3 (Horiba). The solution of samples were prepared to be 5 μM in 0.5% (v/v) DMSO, and diluted with 0.1M NaOH.
S6.5 Photophysical properties of the halogenated-fluorescein derivatives
Supplementary Table 4. Photophysical Properties of Halogenated-fluorescein derivatives. […]
a Measured in 2% DMSO; b Measured in 2% DMSO citric acid -disodium hydrogen phosphate buffer; c Measured in a mixed solvent of D 2O and CH3CN (VD2O:
VCH3CN = 1: 15); d The solution of samples were prepared to be 5 μM in 0.5% (v/v) DMSO, and diluted with 0.1 M NaOH.

Series [5] is described as follows: pH titration of halogenated fluorescein (pH0.5). Format: physicochemical. As to the method:
The pH0.5 values (the pH value when the open form reduce to the half of the maximum) of various fluorescein derivatives were determined experimentally through pH titration (Supplementary Figs. 6–16).
The pH of the solutions were adjusted through varying the ratios of citric acid and Na2HPO4 (pH 2.2–8.0), and further acidity was adjusted with concentrated HCl or 1 M NaOH. The absorption and fluorescence spectra of the resultant solutions were then collected.
Section S5. pH-dependent Properties of the Halogenated Fluoresceins.
S5.1 pH titration of halogenated fluorescein
Fluorescein derivatives (Supplementary Table 1) were dissolved in DMSO to obtain 1 mM stock solutions and then diluted with citric acid-Na2HPO4 buffer (100 mM) to 10
μM. The pH of the solutions were adjusted through varying the ratios of citric acid and Na2HPO4 (pH 2.2-8.0), and further acidity was adjusted with concentrated HCl or 1 M
NaOH. The absorption and fluorescence spectra of the resultant solutions were then

Another series has as its system L. plantarum. The experiment in a line: Photodynamic inhibition of L. plantarum (coating plate method). Format: cell-based, Lactobacillus plantarum. The note with it: 0.5 μM photosensitizer, irradiated 10 min, pH 2.5; 620 nm red LED for Zn-tpp and PC.
In the next series the test system is E.coli. The note with it: dose 0.5 μM, 20 min; cited from earlier work.
Where [6] appears, read: 2% DMSO citric acid-disodium hydrogen phosphate buffer (Supplementary Table 4).
Setting [7] is: pH value when the open form reduces to half of the maximum, pH titration, 10 μM, citric acid–Na2HPO4 buffer.

Several values for one entry are separate records, joined by “and”; a condition that tells them apart may be missing. Identical values can stand only once.

For `C=Cc1c(C)c2cc3nc(c(CC(=O)O)c4[nH]c(cc5nc(cc1[nH]2)C(C)=C5CC)c(C)c4C(=O)O)[C@@H](CCC(=O)O)[C@@H]3C` [Ce 6, reference compound], in series [1], the “H&E staining of tongue sections, with light” value is given as “large amounts of inflammation infiltration”. Also, the “wound infection of tomatoes, with light” value in the series on C. albicans is “different magnitudes of wound infection”.

In the case of `CN(C)c1ccc2nc3ccc(=[N+](C)C)cc-3sc2c1` [Methylene Blue], the Inhibition ratio in the series with MRSA is 4.7 log10.

Take `O=C(O)c1c(Cl)c(Cl)c(Cl)c(Cl)c1-c1c2cc(I)c(=O)c(I)c-2oc2c(I)c(O)c(I)cc12` [RB, Tetraiodo-tetrachloro-fluorescein]: in [2], the “singlet oxygen quantum yield (ΦΔ) of the standard” value is recorded as 0.75. Also, the “Singlet oxygen yield (ΦΔ)” value in [3] (mixed solvent of D2O and CH3CN (1:15) (Supplementary Table 4)) turned out to be 0.75. Further, the “singlet oxygen quantum yield (ΦΔ)” value in series [3] came out at 0.75. In [4], this molecule gave a kdec of 1e+11 s⁻¹, a knr of 9.97e+10 s⁻¹, a krad of 3e+08 s⁻¹ and a ΦFL of 0.003. In series [4], this molecule returned a λAbs of 550 nm, a λPh of 732 nm, a λem of 570 nm and a τfl of 0.01 ns. The same molecule had a pH0.5 in series [5] (setting [6]) of 3.99. The pH0.5 in series [5] (setting [7]) is 3.99.

`O=C(O)c1c(Cl)c(Cl)c(Cl)c(Cl)c1-c1c2ccc(=O)cc-2oc2cc(O)ccc12` [TCF-2, Tetrachloro-fluorescein-2]: in series [3], the “singlet oxygen quantum yield (ΦΔ)” value was 0.05. Further, in series [4], the kdec was determined as 2.05e+08 s⁻¹, the knr turned out to be 3e+07 s⁻¹, the krad amounted to 1.75e+08 s⁻¹ and the ΦFL stood at 0.854. Moreover, in [4], the λAbs is listed as 511 nm, the λPh was 637 nm, the λem is on record as 531 nm and the τfl turned out to be 4.87 ns. The molecule also came in with a pH0.5 in series [5] (setting [6]) of 5.89. For the same molecule, the “lowering of pH0.5 compared with fluorescein” value in series [5] (difference to fluorescein (6.09)) is given as 0.16 units. For the same molecule, the pH0.5 in series [5] (setting [7]) was 5.89 and 5.93.

As to `C1=Cc2nc1c(-c1ccccc1)c1ccc([n-]1)c(-c1ccccc1)c1nc(c(-c3ccccc3)c3ccc([n-]3)c2-c2ccccc2)C=C1.[Zn+2]` [Zn-tpp, Zinc(II) tetraphenylporphyrin, reference compound], the “H&E staining of tongue sections, with light” value in series [1] is on record as “large amounts of inflammation infiltration”. In addition, the “antimicrobial activity (survival rate of L. plantarum)” value in the series on L. plantarum is “no obvious antimicrobial activity”. Further, the “wound infection of tomatoes, with light” value in the series on C. albicans is “different magnitudes of wound infection”.

Turning to Dichloro-fluorescein [DCF], the “singlet oxygen quantum yield (ΦΔ)” value in [3] is reported as 0.04. In series [4], this molecule registered a kdec of 2.31e+08 s⁻¹, a knr of 7.7e+07 s⁻¹, a krad of 1.54e+08 s⁻¹ and a ΦFL of 0.668. In addition, in [4], the λAbs was 502 nm, the λPh was found to be 645 nm, the λem was 529 nm and the τfl was 4.33 ns. Moreover, in [5] (setting [6]), the pH0.5 stood at 4.77. In series [5] (setting [7]), this molecule displayed a pH0.5 of 4.77.

As to Fluorescein, the “singlet oxygen quantum yield (ΦΔ)” value in [3] was found to be 0.01. In series [4], this molecule gave a kdec of 2.18e+08 s⁻¹, a knr of 3.1e+07 s⁻¹, a krad of 1.87e+08 s⁻¹ and a ΦFL of 0.858. Moreover, in series [4], the λAbs turned out to be 491 nm, the λPh was determined as 638 nm, the λem amounted to 515 nm and the τfl was 4.58 ns. In addition, the pH0.5 in series [5] (setting [6]) was found to be 6.09. Besides, the pH0.5 in series [5] (setting [7]) was 6.09.

[Ru(bpy)2(dppn)]2+: in the series on E.coli, the Inhibition ratio is reported as 5.4 log10.
